Data published in patent publication US12077503B2, “Substituted cyclic amides and their use as herbicides” (FMC CORPORATION, priority 2015, dated 2024).

What was measured:
Assay type in all cases: in vivo
[1] = system: rice (Oryra sativa); assay: Test B flooded paddy test; details: Flood, 250 g ai/ha; 0 to 100 scale where 0 is no effect and 100 is complete control; 13 to 15 d
In short: (§1)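 Flooding to 3 cm over soil accompanied treatment, which consisted of adding compound to the standing water around 2-leaf plants; depth was then maintained. Visual assessment versus controls followed at 13 to 15 d (scale 0–100, 0 meaning no effect).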

[2] = system: barnyardgrass (Echinochloa crus-galli); assay: Test B flooded paddy test; details: Flood, 250 g ai/ha; 0 to 100 scale where 0 is no effect and 100 is complete control; 13 to 15 d
In short: as §1

[3] = system: ducksalad (Heteranthera limosa); assay: Test B flooded paddy test; details: Flood, 250 g ai/ha; 0 to 100 scale where 0 is no effect and 100 is complete control; 13 to 15 d
In short: as §1

[4] = system: sedge, umbrella (small-flower umbrella sedge, Cyperus difformis); assay: Test B flooded paddy test; details: Flood, 250 g ai/ha; 0 to 100 scale where 0 is no effect and 100 is complete control; 13 to 15 d
In short: as §1

[5] = system: Galium (catchweed bedstraw, Galium aparine); assay: Test A postemergence; details: for Galium plant response rating: 125 g ai/ha, postemergence, visual injury rating on 0 to 100 scale (0 no effect, 100 complete control), approx. 10 d; for Plant response rating, Galium: Postemergence, 500 g ai/ha, 0 to 100 scale where 0 is no effect and 100 is complete control
Description: (§2) Seeds of plant species selected from barnyardgrass (Echinochloa crus-galli), Kochia (Kochia scoparia), ragweed (common ragweed, Ambrosia elatior), ryegrass, Italian (Italian ryegrass, Lolium multiflorum), crabgrass, large (Digitaria sanguinalis), giant foxtail (Setaria faberii), green foxtail (Setaria viridis), morningglory (Ipomoea spp.), pigweed (Amaranthus retroflexus), velvetleaf (Abutilon theophrasti), wheat (Triticum aestivum), and corn (Zea mays) were planted into a blend of loam soil and sand and treated preemergence with a directed soil spray using test chemicals formulated in anon-phytotoxic solvent mixture which included a surfactant.
(§3) At the same time, plants selected from these crop and weed species and also blackgrass (Alopecurus myosuroides), and Galium (catchweed bedstraw, Galium aparine) were planted in pots containing the same blend of loam soil and sand and treated with postemergence applications of test chemicals formulated in the same manner. Plants ranged in height from 2 to 10 cm and were in the one- to two-leaf stage for the postemergence treatment. Treated plants and untreated controls were maintained in a greenhouse for approximately 10 d, after which time all treated plants were compared to untreated controls and visually evaluated for injury. Plant response ratings, summarized in Table A, are based on a 0 to 100 scale where 0 is no effect and 100 is complete control. A dash (-) response means no test result.

[6] = system: ragweed (common ragweed, Ambrosia elatior); assay: Test A postemergence; details: for Ragweed plant response rating: 125 g ai/ha, postemergence, visual injury rating on 0 to 100 scale (0 no effect, 100 complete control), approx. 10 d; for Plant response rating, Ragweed: Postemergence, 500 g ai/ha, 0 to 100 scale where 0 is no effect and 100 is complete control
Description: as §2, §3

[7] = system: ryegrass, Italian (Italian ryegrass, Lolium multiflorum); assay: Test A postemergence; details: for Ryegrass, Italian plant response rating: 125 g ai/ha, postemergence, visual injury rating on 0 to 100 scale (0 no effect, 100 complete control), approx. 10 d; for Plant response rating, Ryegrass, Italian: Postemergence, 500 g ai/ha, 0 to 100 scale where 0 is no effect and 100 is complete control
Description: as §2, §3

[8] = system: pigweed (Amaranthus retroflexus); assay: Test A postemergence; details: for Pigweed plant response rating: 125 g ai/ha, postemergence, visual injury rating on 0 to 100 scale (0 no effect, 100 complete control), approx. 10 d; for Plant response rating, Pigweed: Postemergence, 500 g ai/ha, 0 to 100 scale where 0 is no effect and 100 is complete control
Description: as §2, §3

[9] = system: barnyardgrass (Echinochloa crus-galli); assay: Test A postemergence; details: for Barnyardgrass plant response rating: 125 g ai/ha, postemergence, visual injury rating on 0 to 100 scale (0 no effect, 100 complete control), approx. 10 d; for Plant response rating, Barnyardgrass: Postemergence, 500 g ai/ha, 0 to 100 scale where 0 is no effect and 100 is complete control
Description: as §2, §3

[10] = system: corn (Zea mays); assay: Test A postemergence; details: for Corn plant response rating: 125 g ai/ha, postemergence, visual injury rating on 0 to 100 scale (0 no effect, 100 complete control), approx. 10 d; for Plant response rating, Corn: Postemergence, 500 g ai/ha, 0 to 100 scale where 0 is no effect and 100 is complete control
Description: as §2, §3

[11] = system: wheat (Triticum aestivum); assay: Test A postemergence; details: for Wheat plant response rating: 125 g ai/ha, postemergence, visual injury rating on 0 to 100 scale (0 no effect, 100 complete control), approx. 10 d; for Plant response rating, Wheat: Postemergence, 500 g ai/ha, 0 to 100 scale where 0 is no effect and 100 is complete control
Description: as §2, §3

[12] = system: blackgrass (Alopecurus myosuroides); assay: Test A postemergence; details: for Blackgrass plant response rating: 125 g ai/ha, postemergence, visual injury rating on 0 to 100 scale (0 no effect, 100 complete control), approx. 10 d; for Plant response rating, Blackgrass: Postemergence, 500 g ai/ha, 0 to 100 scale where 0 is no effect and 100 is complete control
Description: as §2, §3

[13] = system: Kochia (Kochia scoparia); assay: Test A postemergence; details: for Kochia plant response rating: 125 g ai/ha, postemergence, visual injury rating on 0 to 100 scale (0 no effect, 100 complete control), approx. 10 d; for Plant response rating, Kochia: Postemergence, 500 g ai/ha, 0 to 100 scale where 0 is no effect and 100 is complete control
Description: as §2, §3

[14] = system: giant foxtail (Setaria faberii); assay: Test A postemergence; details: for Foxtail, Giant plant response rating: 125 g ai/ha, postemergence, visual injury rating on 0 to 100 scale (0 no effect, 100 complete control), approx. 10 d; for Plant response rating, Foxtail, Giant: Postemergence, 500 g ai/ha, 0 to 100 scale where 0 is no effect and 100 is complete control
Description: as §2, §3

[15] = system: ragweed (common ragweed, Ambrosia elatior); assay: Test A preemergence; details: Preemergence; for Plant response rating, Ragweed: 125 g ai/ha, visual injury after approximately 10 d, 0 to 100 scale where 0 is no effect and 100 is complete control; for Ragweed plant response rating (0 to 100 scale, 0 is no effect, 100 is complete control): 500 g ai/ha, visual injury approx. 10 d
Description: as §2, §3

[16] = system: ryegrass, Italian (Italian ryegrass, Lolium multiflorum); assay: Test A preemergence; details: Preemergence; for Plant response rating, Ryegrass, Italian: 125 g ai/ha, visual injury after approximately 10 d, 0 to 100 scale where 0 is no effect and 100 is complete control; for Ryegrass, Italian plant response rating (0 to 100 scale, 0 is no effect, 100 is complete control): 500 g ai/ha, visual injury approx. 10 d
Description: as §2, §3

[17] = system: pigweed (Amaranthus retroflexus); assay: Test A preemergence; details: Preemergence; for Plant response rating, Pigweed: 125 g ai/ha, visual injury after approximately 10 d, 0 to 100 scale where 0 is no effect and 100 is complete control; for Pigweed plant response rating (0 to 100 scale, 0 is no effect, 100 is complete control): 500 g ai/ha, visual injury approx. 10 d
Description: as §2, §3

[18] = system: barnyardgrass (Echinochloa crus-galli); assay: Test A preemergence; details: Preemergence; for Plant response rating, Barnyardgrass: 125 g ai/ha, visual injury after approximately 10 d, 0 to 100 scale where 0 is no effect and 100 is complete control; for Barnyardgrass plant response rating (0 to 100 scale, 0 is no effect, 100 is complete control): 500 g ai/ha, visual injury approx. 10 d
Description: as §2, §3

[19] = system: Kochia (Kochia scoparia); assay: Test A preemergence; details: Preemergence; for Plant response rating, Kochia: 125 g ai/ha, visual injury after approximately 10 d, 0 to 100 scale where 0 is no effect and 100 is complete control; for Kochia plant response rating (0 to 100 scale, 0 is no effect, 100 is complete control): 500 g ai/ha, visual injury approx. 10 d
Description: as §2, §3

[20] = system: giant foxtail (Setaria faberii); assay: Test A preemergence; details: Preemergence; for Plant response rating, Foxtail, Giant: 125 g ai/ha, visual injury after approximately 10 d, 0 to 100 scale where 0 is no effect and 100 is complete control; for Foxtail, Giant plant response rating (0 to 100 scale, 0 is no effect, 100 is complete control): 500 g ai/ha, visual injury approx. 10 d
Description: as §2, §3

With `O=C1NCC(c2c(F)cccc2F)C1C(=O)Nc1cccc(F)c1F` (racemic) [Compound 516] the “Plant response rating, Rice” value [1] was 0, the “Plant response rating, Barnyardgrass” value [2] was 0 and the “Plant response rating, Ducksalad” value [3] was 0. The “Plant response rating, Sedge, Umbrella” value [4] was 0, the “Galium plant response rating” value [5] was 0 and the “Plant response rating, Galium” value [5] was 0. For the same molecule, the “Ragweed plant response rating” value [6] was 0, the “Plant response rating, Ragweed” value [6] was 0 and the “Ryegrass, Italian plant response rating” value [7] was 0. The “Plant response rating, Ryegrass, Italian” value [7] was 0, the “Pigweed plant response rating” value [8] was 0 and the “Plant response rating, Pigweed” value [8] was 0. For the same molecule, the “Barnyardgrass plant response rating” value [9] was 0, the “Plant response rating, Barnyardgrass” value [9] was 70 and the “Corn plant response rating” value [10] was 0. For the same molecule, the “Plant response rating, Corn” value [10] was 0, the “Wheat plant response rating” value [11] was 0 and the “Plant response rating, Wheat” value [11] was 0. For the same molecule, the “Blackgrass plant response rating” value [12] was 0, the “Plant response rating, Blackgrass” value [12] was 0 and the “Kochia plant response rating” value [13] was 0. For the same molecule, the “Plant response rating, Kochia” value [13] was 0, the “Foxtail, Giant plant response rating” value [14] was 0 and the “Plant response rating, Foxtail, Giant” value [14] was 70. The “Plant response rating, Ragweed” value [15] was 0, the “Ragweed plant response rating (0 to 100 scale, 0 is no effect, 100 is complete control)” value [15] was 0 and the “Plant response rating, Ryegrass, Italian” value [16] was 0. For the same molecule, the “Ryegrass, Italian plant response rating (0 to 100 scale, 0 is no effect, 100 is complete control)” value [16] was 0, the “Plant response rating, Pigweed” value [17] was 0 and the “Pigweed plant response rating (0 to 100 scale, 0 is no effect, 100 is complete control)” value [17] was 0. The “Plant response rating, Barnyardgrass” value [18] was 40, the “Barnyardgrass plant response rating (0 to 100 scale, 0 is no effect, 100 is complete control)” value [18] was 80 and the “Plant response rating, Kochia” value [19] was 0. The “Kochia plant response rating (0 to 100 scale, 0 is no effect, 100 is complete control)” value [19] was 0, the “Plant response rating, Foxtail, Giant” value [20] was 70 and the “Foxtail, Giant plant response rating (0 to 100 scale, 0 is no effect, 100 is complete control)” value [20] was 90.
In the case of `O=C1NCC(c2c(F)cccc2F)C1C(=O)Nc1ccc(F)cc1F` (racemic) [Compound 517], the “Plant response rating, Rice” value [1] is reported as 0, the “Plant response rating, Barnyardgrass” value [2] is reported as 0 and the “Plant response rating, Ducksalad” value [3] is reported as 0. The “Plant response rating, Sedge, Umbrella” value [4] was 0, the “Galium plant response rating” value [5] was 0 and the “Plant response rating, Galium” value [5] was 0. For the same molecule, the “Ragweed plant response rating” value [6] was 0, the “Plant response rating, Ragweed” value [6] was 0 and the “Ryegrass, Italian plant response rating” value [7] was 0. For the same molecule, the “Plant response rating, Ryegrass, Italian” value [7] was 0, the “Pigweed plant response rating” value [8] was 0 and the “Plant response rating, Pigweed” value [8] was 0. The “Barnyardgrass plant response rating” value [9] was 20, the “Plant response rating, Barnyardgrass” value [9] was 30 and the “Corn plant response rating” value [10] was 0. For the same molecule, the “Plant response rating, Corn” value [10] was 0, the “Wheat plant response rating” value [11] was 0 and the “Plant response rating, Wheat” value [11] was 0. The “Blackgrass plant response rating” value [12] was 0, the “Plant response rating, Blackgrass” value [12] was 0 and the “Kochia plant response rating” value [13] was 0. The “Plant response rating, Kochia” value [13] was 0, the “Foxtail, Giant plant response rating” value [14] was 0 and the “Plant response rating, Foxtail, Giant” value [14] was 0. The “Plant response rating, Ragweed” value [15] was 0, the “Ragweed plant response rating (0 to 100 scale, 0 is no effect, 100 is complete control)” value [15] was 0 and the “Plant response rating, Ryegrass, Italian” value [16] was 0. The “Ryegrass, Italian plant response rating (0 to 100 scale, 0 is no effect, 100 is complete control)” value [16] was 0, the “Plant response rating, Pigweed” value [17] was 0 and the “Pigweed plant response rating (0 to 100 scale, 0 is no effect, 100 is complete control)” value [17] was 0. For the same molecule, the “Plant response rating, Barnyardgrass” value [18] was 0, the “Barnyardgrass plant response rating (0 to 100 scale, 0 is no effect, 100 is complete control)” value [18] was 0 and the “Plant response rating, Kochia” value [19] was 0. The “Kochia plant response rating (0 to 100 scale, 0 is no effect, 100 is complete control)” value [19] was 0, the “Plant response rating, Foxtail, Giant” value [20] was 0 and the “Foxtail, Giant plant response rating (0 to 100 scale, 0 is no effect, 100 is complete control)” value [20] was 30.
